Experimental data: US9933367B2, “Method to identify and isolate pluripotent stem cells using endogenous blue fluorescence” (NATIONAL CENTRE FOR BIOLOGICAL SCIENCES, priority 2012, dated 2018)
Entries after “also recorded” stand apart in the source; their conditions may differ.

Experiments:
[1] = tested on: mouse embryonic stem cells; assay: Mouse ES cells grown in media with additional retinol; blue fluorescence and lipid bodies; format: cell-based; settings: 20% KOSR media with retinol, 48 hours
Text: The increase in fluorescence intensities is also found to be confined to the lipid bodies.

[2] = tested on: HPSCs; assay: Supplementing HPSC culture media with retinyl palmitate or retinol; blue fluorescence of lipid bodies; format: cell-based, human
Text: All non-confocal epifluorescence images are obtained with a Nikon Eclipse TE2000-E-PFS (Japan) microscope with a Photometrix Cascade II 512 EM-CCD camera (Roper Scientific, USA) and Image Pro-Plus AMS software (Media Cybernetics, USA). The Nikon objectives used are 60×/NA1.4 oil immersions and 10×/NA 0.3 for all experiments. Fluorescence is visualized using band pass filters (Chroma Technology, USA). The filters used are Blue (Exciter—350 nm/50, Dichoric—400 nm long pass, Emitter—460 nm/50), Green (Exciter—500 nm/20, Dichoric—535 nm/30, Emitter—515 long pass) and Red (Exciter—450 nm/30, Dichoric—620 nm/0, Emitter—570 long pass). Confocal images are acquired using a Zeiss LSM 510 Meta Confocal set up with a 63× objective and a 405 laser (excitation—405 nm, emission—about 420 nm to about 490 nm). […] For quantitative analysis and depiction of images for direct comparison, for e.g. between mouse ES cells and human ES cells, all the images presented have the same intensity scale bounded by the adjusted maximum value of the HuES cell image. Scatter plot and linear fit analyses of pluripotency marker expression (OCT4, SOX2 and Nanog) and blue fluorescence is performed with fluorescence intensity values of individual pixels using the ‘plot profile’ application from ImageJ. […] The increase in fluorescence intensities is also found to be confined to the lipid bodies.

[3] = tested on: HuES cells; assay: HuES cells in retinol-free E8 media supplemented with retinol; fluorescent lipid bodies; format: cell-based, human; settings: HuES cells cultured in E8 media (lacks retinol), retinol 10 μM added
Description: HuES cells cultured in E8 media show a rapid decrease in lipid bodies along with associated fluorescence in 24 hours, and the lipid bodies are completely absent by 72 hours (FIG. 10). […] A possible reason could be the differential expression of proteins involved in retinoid uptake and metabolism between the two states/cell types.

Structure (SMILES) | retinoid-associated (blue) fluorescence [1] | blue fluorescence in the HPSCs emanating from the lipid bodies ([2]; culture media supplemented with retinol) | fluorescent lipid bodies after addition to E8 cultures [3] | mean blue fluorescence intensity in the lipid bodies ([2]; HPSCs on MEF feeder cells, typical media with 20% KOSR, supplemented at 2-10 μM, after 24 hours)
CC1=C(/C=C/C(C)=C/C=C/C(C)=C/CO)C(C)(C)CCC1 [retinol] | practically no increase; also recorded: do not show any increase in blue fluorescence | dose-dependent increase | re-appearance of fluorescent lipid bodies; also recorded: regain blue fluorescent lipid bodies in 48 hours | 
CCCCCCCCCCCCCCCC(=O)OC/C=C(C)/C=C/C=C(C)/C=C/C1=C(C)CCCC1(C)C [retinyl palmitate] |  |  |  | dose-dependent saturable increase; also recorded: dose dependent increase in blue fluorescence
